From the supplement of paper PMC11208160

Assay: recombinant barcode read abundance after kanamycin selection (control-corrected) (log10(CPM+1)); higher = more efficient recombination; sequences stand for … in AGTGCAGAGAAAATCGGCCAGTTTTCTCTGCCTGCAGTCCGCATGCCGT…AGATTTATGCAGCGGACTGCCTTTCTCCCAAAGTGATAAACCGGACAGTATCATGGACCGGTTTTCCCGGTAATCCGTATTTGCAAGGTTGGTTTCACT; site = the 11-nt target
Method in brief: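 Recombination efficiency was calculated from barcode counts at recombinant junctions, normalized to counts per million, averaged and corrected by the control. Each value is given as log10(CPM+1). The constructs were Gibson-cloned oligos (promoter, target, barcode, J23119-driven first 104 bridge RNA bases) in a vector with the remaining 73 bp and a T7-inducible recombinase, co-electroporated into E. coli with a donor plasmid and plated in duplicate on chloramphenicol/ampicillin LB agar (control) or chloramphenicol/ampicillin/kanamycin with 0.1 mM IPTG.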
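Note: IS621 recombinase and bridge RNA in Escherichia coli cells.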

Row | Sequence | recombinant barcode read abundance (log10)
1 | CCAAGGGCTTGGGTTCTAACCTGTTGCGG (site CCAAGGGCTCA) | 0.628
2 | CGTTCCTCTTGGGTTCTAACCTGTTGCCT (site CATTCCTCTAG) | 0.0798
3 | GACTCTCCTTGGGTTCTAACCTGTTGCAT (site GACTCTCCTAG) | 0.186
4 | TGGAGCCCTTGGGTTCTAACCTGTTGCAA (site TGGAGCCCTGT) | 0.263
5 | GTCGCGGCTTGGGTTCTAACCTGTTGCCT (site GTCGCGCCTAG) | 0.182
6 | CTACAGACTTGGGTTCTAACCTGTTGCGC (site CTACAGACTCC) | 0.221
7 | TGTGAGTCTTGGGTTCTAACCTGTTGCGT (site TGTGAGTCTAC) | 2.55
8 | GGGTCGGCTTGGGTTCTAACCTGTTGCGA (site GGGTCGGCTTC) | 2.27
9 | ATATGCGCTTGGGTTCTAACCTGTTGCCG (site ATATGAGCTCG) | 0.108
10 | AGCCCTTCTTGGGTTCTAACCTGTTGCTT (site GTAGGGACTCG) | 0.0698
11 | GTCGGAGCTTGGGTTCTAACCTGTTGCCG (site GTCGGAGCTCC) | 0.152
12 | GTCGACGCTTGGGTTCTAACCTGTTGCCT (site GTCGACGCTAG) | 0.635
13 | CACTTCCCTTGGGTTCTAACCTGTTGCGT (site CACTTCCCTAT) | 1.5
14 | GACCTATCTTGGGTTCTAACCTGTTGCCT (site GACCTATCTAG) | 1.39
15 | CGAACTACTTGGGTTCTAACCTGTTGCAT (site CGAACTACTAA) | 0.215
16 | ACACGGCCTTGGGTTCTAACCTGTTGCCG (site ACACGGCCTCG) | 0.428
17 | GAGCCGACTTGGGTTCTAACCTGTTGCCT (site GAGCGGACTAG) | 0.274
18 | CGTACCTCTTGGGTTCTAACCTGTTGCTG (site CGTACCTCTGA) | 0.0169
19 | GTGGGCGCTTGGGTTCTAACCTGTTGCCT (site GTAGGCGCTAG) | 0.973
20 | GTACAGGCTTGGGTTCTAACCTGTTGCAG (site TGACAGGCTCT) | 0.178
21 | GTGGTAACTTGGGTTCTAACCTGTTGCCT (site GTGGTACCTAG) | 0.19
22 | CGTATATCTTGGGTTCTAACCTGTTGCCT (site CGTATATCTAG) | 0

Row | Sequence | recombinant barcode read abundance (log10)
23 | TGGAGCCCTTGGGTTCTAACCTGTTGCAA (site TGGAGCCCTCT) | 0.0367
24 | TGTAGATCTTGGGTTCTAACCTGTTGCAT (site TGTTGACCTAT) | 0.15
25 | CGAGACGCTTGGGTTCTAACCTGTTGCCT (site CGAGACGCTAG) | 1.87
26 | GTCGTAGCTTGGGTTCTAACCTGTTGCCT (site GACGTAGCTAG) | 0.464
27 | GGACCCTCTTGGGTTCTAACCTGTTGCCT (site CGACCCTCTAG) | 0.406
28 | TGTCCTGCTTGGGTTCTAACCTGTTGCCT (site CGTCCTGCTAG) | 0.167
29 | ATACCTCCTTGGGTTCTAACCTGTTGCCT (site CTAACTCCTAG) | 0.148
30 | ATAGGACCTTGGGTTCTAACCTGTTGCAG (site ATAGGACCTCT) | 2.75
31 | TAGTACTCTTGGGTTCTAACCTGTTGCTC (site TAGTACTCTAA) | 0.096
32 | CGTAGGGCTTGGGTTCTAACCTGTTGCCG (site AGTAGGGCTCT) | 0.103
33 | GCCAACCCTTGGGTTCTAACCTGTTGCCT (site GCCAACCCTAG) | 0.326
34 | CTATGACCTTGGGTTCTAACCTGTTGCTT (site CTATGACCTAA) | 1.4
35 | GTTTGGTCTTGGGTTCTAACCTGTTGCCT (site GTTTGGTCTAG) | 0.405
36 | AGTCTGCCTTGGGTTCTAACCTGTTGCCT (site GGTCTGCCTAG) | 0.0978
37 | AACAGACCTTGGGTTCTAACCTGTTGCCT (site CACAGACCTAG) | 0.116
38 | GTTTGACCTTGGGTTCTAACCTGTTGCTT (site GTTTGTCCTAA) | 0.0874
39 | AGGGTCACTTGGGTTCTAACCTGTTGCCT (site ATGGTCACTAG) | 1.06
40 | GGGATGTCTTGGGTTCTAACCTGTTGCCT (site GGGATGTCTAG) | 2.04
41 | TCTTGTCCTTGGGTTCTAACCTGTTGCGG (site TCTTGTCCTCC) | 0.526
42 | CCGCTATCTTGGGTTCTAACCTGTTGCCT (site CCGTTATCTAG) | 0.0555
43 | CTAAGAACTTGGGTTCTAACCTGTTGCGT (site CTAAGAACTAC) | 2.1
44 | CTGGTATCTTGGGTTCTAACCTGTTGCTT (site GGCTACCCTTT) | 0.0591

Row | Sequence | recombinant barcode read abundance (log10)
45 | CTATGACCTTGGGTTCTAACCTGTTGCAT (site CTATGACCTAG) | 0.19
46 | ATGGGAGCTTGGGTTCTAACCTGTTGCGA (site AGGGGAGCTCC) | 0.627
47 | ACGCGGCCTTGGGTTCTAACCTGTTGCCT (site ACGCGGCCTAG) | 0.103
48 | TAATGTTCTTGGGTTCTAACCTGTTGCAT (site TAATGGTCTAT) | 0.0924
49 | CTGGTGTCTTGGGTTCTAACCTGTTGCCT (site CTGGAGTCTAG) | 0.0957
50 | CGCTTGTCTTGGGTTCTAACCTGTTGCCT (site CGCTGGTCTAG) | 0.117
51 | GCCACGCCTTGGGTTCTAACCTGTTGCAG (site GCCACGCCTCT) | 0.115
52 | CGCCTGCCTTGGGTTCTAACCTGTTGCCT (site CGCCTGCCTAG) | 0.113
53 | GCTCAGACTTGGGTTCTAACCTGTTGCCT (site GCTCAGGCTAG) | 0.132
54 | GTAATCCCTTGGGTTCTAACCTGTTGCCA (site GTAATCCCTCG) | 0.173
55 | AGGAACACTTGGGTTCTAACCTGTTGCCT (site AGAAACACTAG) | 1.36
56 | GCATCGGCTTGGGTTCTAACCTGTTGCCT (site GCTTCGGCTAG) | 0.0102
57 | GTCCGTCCTTGGGTTCTAACCTGTTGCAT (site GTCCGTCCTAA) | 0.178
58 | ACGACTCCTTGGGTTCTAACCTGTTGCTT (site ACGATTCCTAA) | 0.0399
59 | CAGGGTCCTTGGGTTCTAACCTGTTGCGG (site TAGGGTTCTCC) | 0.0367
60 | CTAAGGTCTTGGGTTCTAACCTGTTGCTA (site TCTTTAGCTCT) | 0.123
61 | CCGCCTGCTTGGGTTCTAACCTGTTGCCT (site CCGCCCGCTAG) | 0.198
62 | GAAAGGGCTTGGGTTCTAACCTGTTGCCT (site GAAAGGGCTAG) | 0.566
63 | GGTGCGGCTTGGGTTCTAACCTGTTGCCT (site CGTGCGGCTAG) | 0.139
64 | CTAGATTCTTGGGTTCTAACCTGTTGCAT (site CTAGATTCTAT) | 2.61
65 | CTCCCGACTTGGGTTCTAACCTGTTGCGC (site CTCCCGACTGC) | 2.08
66 | AACTAAACTTGGGTTCTAACCTGTTGCCT (site AACTAAACTAG) | 1.02

Row | Sequence | recombinant barcode read abundance (log10)
67 | GACTAGTCTTGGGTTCTAACCTGTTGCAG (site CGGGGCCCTAA) | 0.156
68 | CTATTCTCTTGGGTTCTAACCTGTTGCTA (site CTATTCTCTTA) | 1.62
69 | TACTCACCTTGGGTTCTAACCTGTTGCTT (site ACTGGTTCTCG) | 0.022
70 | TAACCTACTTGGGTTCTAACCTGTTGCAT (site TAACATACTAT) | 0.0358
71 | CGGCACACTTGGGTTCTAACCTGTTGCGG (site CGGTACACTCC) | 0.582
72 | ACTTTAGCTTGGGTTCTAACCTGTTGCAG (site ACTTTAGCTCT) | 0.694
73 | GCCGGGTCTTGGGTTCTAACCTGTTGCTT (site GCGGGGTCTAA) | 0.092
74 | TAGTCCTCTTGGGTTCTAACCTGTTGCTA (site TAGTCCTCTCA) | 0.0797
75 | TACTAAGCTTGGGTTCTAACCTGTTGCGT (site TACTAAGCTAA) | 0.238
76 | CTCGACCCTTGGGTTCTAACCTGTTGCAT (site CTCGACCCTAT) | 2.4
77 | AGATTGCCTTGGGTTCTAACCTGTTGCCT (site TGATTTCCTAG) | 0
78 | TACTTCGCTTGGGTTCTAACCTGTTGCCT (site CACATCGCTAG) | 0.042
79 | GATTCTCCTTGGGTTCTAACCTGTTGCGT (site GATTCTCCTAC) | 0.541
80 | AATTGGCCTTGGGTTCTAACCTGTTGCTT (site AATTGGCCTAA) | 0.344
81 | CGCCGAACTTGGGTTCTAACCTGTTGCCT (site GGCCGAACTAG) | 0.339
82 | GGCATATCTTGGGTTCTAACCTGTTGCCT (site GGCATATCTAG) | 0.048
83 | CGCCGAACTTGGGTTCTAACCTGTTGCCT (site CGCCGAACTAG) | 0.0225
84 | GTATTAGCTTGGGTTCTAACCTGTTGCCG (site GAATTAGCTCC) | 0.128
85 | TGCCCGCCTTGGGTTCTAACCTGTTGCCT (site TGCCCGCCTAG) | 0.292
86 | GTCGGAGCTTGGGTTCTAACCTGTTGCGG (site GTCGGAGCTCT) | 1.29
